From a compilation of properties of binary mixtures (doi:10.1021/je300108z) come the findings set out here.

The series is described as follows: xn = mol fraction of the nth substance listed. The following applies: 101 kPa.

For orientation: viscosity means the internal friction of a fluid under shear. A lower viscosity goes with a thin fluid.

Regarding `CCCCCCCC[N+](CC)(CC)CC.O=S(=O)([N-]S(=O)(=O)C(F)(F)F)C(F)(F)F` + O, the viscosity by setting is: (293.25 K, x2 = 0.1442) 107.8 mPa·s; (298.05 K, x2 = 0.1442) 88.1 mPa·s; (303.05 K, x2 = 0.1442) 69.8 mPa·s; (313.05 K, x2 = 0.1442) 45.09 mPa·s.

In the case of `CCCCCC[N+](CC)(CC)CC.O=S(=O)([N-]S(=O)(=O)C(F)(F)F)C(F)(F)F` + O, the viscosity by setting is: (298.05 K, x2 = 0.1618) 66.7 mPa·s; (303.05 K, x2 = 0.1618) 54 mPa·s; (313.05 K, x2 = 0.1618) 36.49 mPa·s; (318.05 K, x2 = 0.1618) 30.73 mPa·s; (322.95 K, x2 = 0.1618) 25.98 mPa·s.

For `CCCCCCCCCCCC[N+](CC)(CC)CC.O=S(=O)([N-]S(=O)(=O)C(F)(F)F)C(F)(F)F` + O, the viscosity turned out to be 97.2 mPa·s (302.95 K, x2 = 0.1238); 76.6 mPa·s (308.05 K, x2 = 0.1238); 60.7 mPa·s (313.05 K, x2 = 0.1238); 48.8 mPa·s (318.05 K, x2 = 0.1238); 39.19 mPa·s (322.95 K, x2 = 0.1238).
